Results taken from patent publication US8859546B2, “Picolinamide inhibitors of kinases” (AbbVie Inc., priority 2011, dated 2014).

Target: T1, ALK (Homo sapiens, UniProt Q9UM73)
T1 construct: purchased Millipore
Experiment: ALK kinase assay (HTRF), apparent Ki
Type: biochemical
Conditions: apparent Ki from IC50 by Cheng-Prusoff; ALK (Millipore), 50 μM ATP; read-out: HTRF_ALK Human-Ki
Procedure: The following procedure is used to determine ALK Activity.
ALK kinase assays were conducted with the indicated final concentrations unless otherwise specified. In 384 well black plates (Axygen), 8 μl of compound (2% DMSO) was incubated with 8 μl Lck-peptide substrate (0.5 μM, biotin-Ahx-GAEEEIYAAFFA-COOH) and 8 μl of a mixture of ALK (3 nM, Millipore) and ATP (50 μM) in reaction buffer (50 mM Hepes, pH 7.4; 10 mM MgCl2; 2 mM MnCl2; 0.1 mM sodium orthovanadate; 0.01% BSA and 1 mM DTT (added fresh before assay) for 1 h at room temperature. Reactions were then quenched by the addition of 30 μl quench solution (streptavidin-allophycocyanin and Europium-cryptate PT66 monoclonal antibody in 40 mM Hepes, pH 7.4; 480 mM KF; 66 mM EDTA; 0.01% Tween-20; and 0.1% BSA) at room temperature. Plates were read 1 h after quenching on an Envision Multilaber Reader and IC50 values were calculated using a sigmoidal fit of the concentration/inhibition response curves. These values were converted to apparent Ki values using the Cheng-Prusoff relationship.
Alternatively, 4 nM ALK (Millipore) and 50 μM ATP were pre-incubated for 30 min at room temperate in 384 well plates (Corning 3676) in 2.5× reaction buffer (125 nM SEB from Cisbio Bioassays, 12.5 mM MgCl2, 5 mM MnCl2, and 2.5 mM DTT). Reactions were initiated by the addition of 4 μl ALK-ATP mixture to 2 μl compounds (2% DMSO) and 4 μl TK-substrate biotin (Cisbio Bioassays). After incubation for 1 h at room temperature, reactions were quenched in 10 μl stop buffer (Cisbio detection buffer containing Streptavididn-XL665 and Eu-Cryptate PT66 monoclonal antibody). Plates were read 1 h after quenching on an Envision Multilaber Reader and IC50 values were calculated using a sigmoidal fit of the concentration/inhibition response curves. These values were converted to apparent Ki values using the Cheng-Prusoff relationship. Results are shown in Table 1 A correlates to an Ki=<100 nM, B correlates to an Ki between 100 nM and 1 μM, C correlates to an Ki=>1 μM.

T1 sequence (Q9UM73 19-1620): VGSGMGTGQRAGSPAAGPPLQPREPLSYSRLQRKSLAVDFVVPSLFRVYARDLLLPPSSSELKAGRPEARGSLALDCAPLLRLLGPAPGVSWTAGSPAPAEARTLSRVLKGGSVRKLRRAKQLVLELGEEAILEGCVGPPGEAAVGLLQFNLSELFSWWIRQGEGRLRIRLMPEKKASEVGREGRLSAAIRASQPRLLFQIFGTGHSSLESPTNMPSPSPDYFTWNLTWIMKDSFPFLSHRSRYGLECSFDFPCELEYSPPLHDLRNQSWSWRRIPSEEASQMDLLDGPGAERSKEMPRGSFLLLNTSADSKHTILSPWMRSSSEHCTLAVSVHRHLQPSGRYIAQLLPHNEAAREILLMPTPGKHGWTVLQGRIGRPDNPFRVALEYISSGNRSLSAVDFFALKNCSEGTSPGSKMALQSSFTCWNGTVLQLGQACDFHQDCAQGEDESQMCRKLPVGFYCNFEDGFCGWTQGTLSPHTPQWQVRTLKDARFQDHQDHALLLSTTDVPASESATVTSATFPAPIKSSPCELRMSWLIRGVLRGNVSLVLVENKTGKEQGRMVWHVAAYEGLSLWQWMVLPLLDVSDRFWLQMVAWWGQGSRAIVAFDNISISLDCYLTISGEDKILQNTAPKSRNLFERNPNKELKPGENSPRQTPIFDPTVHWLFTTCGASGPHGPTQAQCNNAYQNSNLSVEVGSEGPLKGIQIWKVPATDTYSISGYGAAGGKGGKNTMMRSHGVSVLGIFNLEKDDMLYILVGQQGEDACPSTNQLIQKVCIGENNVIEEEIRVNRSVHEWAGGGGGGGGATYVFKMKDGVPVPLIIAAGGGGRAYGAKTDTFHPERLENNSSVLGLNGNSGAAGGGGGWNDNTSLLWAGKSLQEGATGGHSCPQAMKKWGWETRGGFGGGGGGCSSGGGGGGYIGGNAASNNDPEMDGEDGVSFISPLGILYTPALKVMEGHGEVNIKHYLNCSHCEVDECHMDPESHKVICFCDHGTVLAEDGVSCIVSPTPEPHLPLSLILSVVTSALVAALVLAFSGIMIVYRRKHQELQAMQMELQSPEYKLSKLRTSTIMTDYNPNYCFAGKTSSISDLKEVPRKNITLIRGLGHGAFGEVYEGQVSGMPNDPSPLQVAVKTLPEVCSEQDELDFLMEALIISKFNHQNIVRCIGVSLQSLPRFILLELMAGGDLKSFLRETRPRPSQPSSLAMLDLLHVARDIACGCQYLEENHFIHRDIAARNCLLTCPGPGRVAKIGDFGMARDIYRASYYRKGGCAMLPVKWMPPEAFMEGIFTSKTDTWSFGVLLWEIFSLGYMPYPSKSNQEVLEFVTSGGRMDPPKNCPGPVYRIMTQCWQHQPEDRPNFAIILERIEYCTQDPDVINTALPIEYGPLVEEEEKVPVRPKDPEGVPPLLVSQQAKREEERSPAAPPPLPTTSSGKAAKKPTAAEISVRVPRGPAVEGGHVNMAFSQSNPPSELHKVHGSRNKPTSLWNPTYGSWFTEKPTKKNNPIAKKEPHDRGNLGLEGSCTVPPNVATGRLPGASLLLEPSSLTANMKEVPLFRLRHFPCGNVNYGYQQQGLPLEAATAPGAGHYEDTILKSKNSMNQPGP

SMILES | Ki [nM]
CN1CCN(c2ccc(Nc3cc(C(C)(C)c4cccc(F)c4)cnc3C(N)=O)cc2)CC1 [Example 35, 5-[2-(3-fluorophenyl)propan-2-yl]-3-{[4-(4-methylpiperazin-1-yl)phenyl]amino}pyridine-2-carboxamide] | 100 to 1000
CC(c1cccc(F)c1)c1cnc(C(N)=O)c(Nc2ccc(N3CCN(C)CC3)c(Cl)c2)c1 (stereo not shown) [Example 36, 3-{[3-chloro-4-(4-methylpiperazin-1-yl)phenyl]amino}-5-[1-(3-fluorophenyl)ethyl]pyridine-2-carboxamide] | 100 to 1000
COc1cc(N2CCN(C)CC2)ccc1Nc1cc(C(C)c2cccc(F)c2)cnc1C(N)=O (stereo not shown) [Example 37, 5-[1-(3-fluorophenyl)ethyl]-3-{[2-methoxy-4-(4-methylpiperazin-1-yl)phenyl]amino}pyridine-2-carboxamide] | 100 to 1000
COc1cc(N2CCN(C)CC2)ccc1Nc1cc(Cc2c(Cl)cccc2Cl)cnc1C(N)=O [Example 38, 5-(2,6-dichlorobenzyl)-3-{[2-methoxy-4-(4-methylpiperazin-1-yl)phenyl]amino}pyridine-2-carboxamide] | < 100
NC(=O)c1ncc(Cc2c(Cl)cccc2Cl)cc1Nc1ccc(N2CCNCC2)cc1 [Example 39, 5-(2,6-dichlorobenzyl)-3-{[4-(piperazin-1-yl)phenyl]amino}pyridine-2-carboxamide] | < 100
CN1CCN(c2ccc(Nc3cc(Cc4cc(F)ccc4Cl)cnc3C(N)=O)cc2Cl)CC1 [Example 40, 5-(2-chloro-5-fluorobenzyl)-3-{[3-chloro-4-(4-methylpiperazin-1-yl)phenyl]amino}pyridine-2-carboxamide] | 100 to 1000
COc1cc(N2CCNCC2)ccc1Nc1cc(Cc2cc(F)ccc2Cl)cnc1C(N)=O [Example 41, 5-(2-chloro-5-fluorobenzyl)-3-{[2-methoxy-4-(piperazin-1-yl)phenyl]amino}pyridine-2-carboxamide] | < 100
COc1cc(N2CCNCC2)ccc1Nc1cc(Cc2c(F)cccc2Cl)cnc1C(N)=O [Example 42, 5-(2-chloro-6-fluorobenzyl)-3-{[2-methoxy-4-(piperazin-1-yl)phenyl]amino}pyridine-2-carboxamide] | < 100
COc1cc(N2CCN(CCN3CCOCC3)CC2)ccc1Nc1cc(Cc2c(F)cccc2Cl)cnc1C(N)=O [Example 43, 5-(2-chloro-6-fluorobenzyl)-3-[(2-methoxy-4-{4-[2-(morpholin-4-yl)ethyl]piperazin-1-yl}phenyl)amino]pyridine-2-carboxamide] | 100 to 1000
CCN(CC)CCN1CCN(c2ccc(Nc3cc(Cc4c(F)cccc4Cl)cnc3C(N)=O)c(OC)c2)CC1 [Example 44, 5-(2-chloro-6-fluorobenzyl)-3-[(4-{4-[2-(diethylamino)ethyl]piperazin-1-yl}-2-methoxyphenyl)amino]pyridine-2-carboxamide] | < 100
COc1cc(N2CCN(CC(C)(C)O)CC2)ccc1Nc1cc(Cc2c(F)cccc2Cl)cnc1C(N)=O [Example 45, 5-(2-chloro-6-fluorobenzyl)-3-({4-[4-(2-hydroxy-2-methylpropyl)piperazin-1-yl]-2-methoxyphenyl}amino)pyridine-2-carboxamide] | 100 to 1000
COc1cc(N2CCN(C)CC2)ccc1Nc1cc(Cc2c(F)cccc2Cl)cnc1C(N)=O [Example 46, 5-(2-chloro-6-fluorobenzyl)-3-{[2-methoxy-4-(4-methylpiperazin-1-yl)phenyl]amino}pyridine-2-carboxamide] | 100 to 1000
CCN1CCN(c2ccc(Nc3cc(Cc4c(F)cccc4Cl)cnc3C(N)=O)c(OC)c2)CC1 [Example 47, 5-(2-chloro-6-fluorobenzyl)-3-{[4-(4-ethylpiperazin-1-yl)-2-methoxyphenyl]amino}pyridine-2-carboxamide] | < 100
COc1cc(N2CCNCC2)ccc1Nc1cc(Cc2c(F)ccc(F)c2Cl)cnc1C(N)=O [Example 48, 5-(2-chloro-3,6-difluorobenzyl)-3-{[2-methoxy-4-(piperazin-1-yl)phenyl]amino}pyridine-2-carboxamide] | 100 to 1000
Cc1ccccc1-c1cnc(C(N)=O)c(Nc2ccc(N3CCN(C)CC3)cc2)c1 [Example 49, 5-(2-methylphenyl)-3-{[4-(4-methylpiperazin-1-yl)phenyl]amino}pyridine-2-carboxamide] | 100 to 1000
CN1CCN(c2ccc(Nc3cc(-c4ccccc4F)cnc3C(N)=O)cc2)CC1 [Example 50, 5-(2-fluorophenyl)-3-{[4-(4-methylpiperazin-1-yl)phenyl]amino}pyridine-2-carboxamide] | 100 to 1000

SMILES | Ki [nM]
CN1CCN(c2ccc(Nc3cc(-c4cccc(F)c4)cnc3C(N)=O)cc2)CC1 [Example 51, 5-(3-fluorophenyl)-3-{[4-(4-methylpiperazin-1-yl)phenyl]amino}pyridine-2-carboxamide] | > 1000
CN1CCN(c2ccc(Nc3cc(-c4cccc(Cl)c4)cnc3C(N)=O)cc2)CC1 [Example 52, 5-(3-chlorophenyl)-3-{[4-(4-methylpiperazin-1-yl)phenyl]amino}pyridine-2-carboxamide] | > 1000
CN1CCN(c2ccc(Nc3cc(-c4cccc(C(N)=O)c4)cnc3C(N)=O)cc2)CC1 [Example 53, 5-(3-carbamoylphenyl)-3-{[4-(4-methylpiperazin-1-yl)phenyl]amino}pyridine-2-carboxamide] | 100 to 1000
CN1CCN(c2ccc(Nc3cc(-c4cccc(NS(C)(=O)=O)c4)cnc3C(N)=O)cc2)CC1 [Example 54, 3-{[4-(4-methylpiperazin-1-yl)phenyl]amino}-5-{3-[(methylsulfonyl)amino]phenyl}pyridine-2-carboxamide] | < 100
CN1CCN(c2ccc(Nc3cc(-c4ccccc4NS(C)(=O)=O)cnc3C(N)=O)cc2)CC1 [Example 55, 3-{[4-(4-methylpiperazin-1-yl)phenyl]amino}-5-{2-[(methylsulfonyl)amino]phenyl}pyridine-2-carboxamide] | 100 to 1000
CN1CCN(c2ccc(Nc3cc(/C=C/c4ccccc4)cnc3C(N)=O)cc2)CC1 [Example 56, 3-{[4-(4-methylpiperazin-1-yl)phenyl]amino}-5-[(E)-2-phenylvinyl]pyridine-2-carboxamide] | > 1000
COc1cc(N2CCN(C)CC2)ccc1Nc1cc(-c2cccc(NS(C)(=O)=O)c2)cnc1C(N)=O [Example 57, 3-{[2-methoxy-4-(4-methylpiperazin-1-yl)phenyl]amino}-5-{3-[(methylsulfonyl)amino]phenyl}pyridine-2-carboxamide] | 100 to 1000
CN1CCN(c2ccc(Nc3cc(-c4ccccc4Cl)cnc3C(N)=O)cc2)CC1 [Example 58, 5-(2-chlorophenyl)-3-{[4-(4-methylpiperazin-1-yl)phenyl]amino}pyridine-2-carboxamide] | 100 to 1000
CN1CCN(c2ccc(Nc3cc(-c4cccc(C#N)c4)cnc3C(N)=O)cc2)CC1 [Example 59, 5-(3-cyanophenyl)-3-{[4-(4-methylpiperazin-1-yl)phenyl]amino}pyridine-2-carboxamide] | > 1000
CN1CCN(c2ccc(Nc3cc(-c4cccnc4)cnc3C(N)=O)cc2)CC1 [Example 60, 5-{[4-(4-methylpiperazin-1-yl)phenyl]amino}-3,3′-bipyridine-6-carboxamide] | > 1000
CN1CCN(c2ccc(Nc3cc(-c4ccccc4C#N)cnc3C(N)=O)cc2)CC1 [Example 61, 5-(2-cyanophenyl)-3-{[4-(4-methylpiperazin-1-yl)phenyl]amino}pyridine-2-carboxamide] | > 1000
CN1CCN(c2ccc(Nc3cc(-c4cccc(C(=O)N(C)C)c4)cnc3C(N)=O)cc2)CC1 [Example 62, 5-[3-(dimethylcarbamoyl)phenyl]-3-{[4-(4-methylpiperazin-1-yl)phenyl]amino}pyridine-2-carboxamide] | 100 to 1000
CN1CCN(c2ccc(Nc3cc(-c4cn[nH]c4)cnc3C(N)=O)cc2)CC1 [Example 63, 3-{[4-(4-methylpiperazin-1-yl)phenyl]amino}-5-(1H-pyrazol-4-yl)pyridine-2-carboxamide] | > 1000
CN1CCN(c2ccc(Nc3cc(-c4cnn(C)c4)cnc3C(N)=O)cc2)CC1 [Example 64, 3-{[4-(4-methylpiperazin-1-yl)phenyl]amino}-5-(1-methyl-1H-pyrazol-4-yl)pyridine-2-carboxamide] | > 1000
CN1CCN(c2ccc(Nc3cc(-c4cccc(NS(=O)(=O)CC(F)(F)F)c4)cnc3C(N)=O)cc2)CC1 [Example 65, 3-{[4-(4-methylpiperazin-1-yl)phenyl]amino}-5-(3-{[(2,2,2-trifluoroethyl)sulfonyl]amino}phenyl)pyridine-2-carboxamide] | 100 to 1000
